# Results published in patent publication EP0243336A1, “Pharmaceutical compositions for the treatment of intermittent claudication” (U C B, S.A., priority 1986, dated 1987).
# Key:
# [1] = system: patients présentant une artériopathie oblitérante périphérique aux stades cliniques IIa et IIb; assay: Clinical trial: hemorheological parameters (blood fluidity, erythrocyte aggregation); format: in vivo; settings: after treatment; piracétam given together with HES 200
# From the text: Parallèlement au traitement, on a déterminé avant et après celui-ci la fluidité du sang des patients étudiés.
# Cet exemple décrit un essai clinique effectué sur deux groupes A et B de 9 patients présentant une artériopathie oblitérante périphérique aux stades cliniques IIa et IIb. […] En outre, la fluidité du sang de ces patients était trés limitée.
# Dans les deux groupes de patients, on a également suivi l'évolution de divers paramètres hémorhéologiques.
# [2] = system: patients présentant une artériopathie oblitérante périphérique aux stades cliniques IIa et IIb; assay: Clinical trial: pain-free walking distance on treadmill before and after six weeks of isovolemic then hypervolemic hemodilution; format: in vivo
# From the text: Cet exemple décrit un essai clinique effectué sur deux groupes A et B de 9 patients présentant une artériopathie oblitérante périphérique aux stades cliniques IIa et IIb. Tous ces patients présentaient des oblitérations d'un ou plusieurs jours ou des microangiopathies des membres inférieurs. En outre, la fluidité du sang de ces patients était trés limitée.
# Les patients du groupe A (âge moyen: 60 ans) reçoivent un traitement combiné par dilution isovolémique et dilution hypervolémique au moyen de HES 200 (poids moléculaire 200.000) et de piracétam.
# A cet effet, en 4 à 5 séances, on prélève chaque fois 500 ml de sang que l'on remplace par une perfusion isovolémique de 500 ml d'une solution aqueuse stérile à 10% de HES 200 contenant 12 g de piracétam. Le rapport en poids entre le HES 200 et le piracétam est donc de 4,1 : 1.
# Entre chaque séance de perfusion isovolémique s'écoule un intervalle de 2 à 3 jours pendant lequel les patients reçoivent 12 g de piracétam par jour sous forme d'une suspension buvable.
# Ensuite, on administre trois fois par semaine, en perfusion hypervolémique, 500 ml de la solution à 10% de HES 200 contenant 12 g de piracétam.
# Le groupe B constitue le groupe témoin et les patients de ce groupe (âge moyen: 60 ans) reçoivent le même traitement, mais sans addition de piracétam.
compound,measurement,setting,value
"NC(=O)CN1CCCC1=O [piracétam, 2-oxo-1-pyrrolidineacétamide]",fluidité du sang,[1],la meilleure
same,temps de claudication et douleurs,[2]; 12 g piracétam added to 500 ml of 10% HES 200,nette diminution
same,distance moyenne de marche sans douleur,"[2]; 12 g piracétam added to 500 ml of 10% HES 200, versus the same without piracétam",augmente de manière trés significative
